pIC50: −log10 of the molar value.
Experiments:
[1] = system: GIST-T1 cell line; experiment: Growth inhibition of gastrointestinal stromal tumor cell line GIST-T1 (Celltiter glo); type: cell-based; settings: Homo sapiens, GISTT1; for GI50: GIST-T1, 72 hours
Protocol: Specifically, 100 μl of the GIST-T1 cell line was added to each well of a 96-well plate at a concentration of 5,000 cells/100 μl. After 24 hours of stabilization, 100 μl of the GIST-T1 cell line was treated with 0.5 μl of each of control compounds and PHI-101 (⅓ serial dilution, 10 points) to a final concentration of up to 50 μM, and cultured at 37° C. under 5% CO2 for 72 hours. As the control compounds, imatinib, dasatinib, sunitinib and ponatinib, which are c-kit inhibitors, were used. After culture, the cells were counted using a Celltiter glo assay kit (Promega), and the 50% growth inhibition values (GI50, μM) of the control compounds and PHI-101 were measured.

[2] = system: Parental Ba/F3 cell line; experiment: Growth inhibition of parental Ba/F3 cell line (Celltiter glo); type: cell-based; settings: Mus musculus, BaF3; Parental Ba/F3, 72 hours
[3] = system: c-kit D816V Ba/F3 cell line; experiment: Growth inhibition of c-kit D816V mutant Ba/F3 cell line (Celltiter glo); type: cell-based; settings: for GI50: Mus musculus, BaF3, cKIT D816V Ba/F3, 72 hours
Protocol: Specifically, 100 μl of a Ba/F3 cell line with a c-kit D816V mutation (FIG. 1) was added to each well of a 96-well plate at a concentration of 10,000 cells/100 μl. After 4 hours, 100 μl of the Ba/F3 cell line was treated with 0.5 μl of each of control compounds and PHI-101 (10-point 1:3 serial dilutions) to a final concentration of up to 50 μM, and cultured at 37° C. under 5% CO2 for 72 hours. As the control compounds, imatinib and sunitinib which are c-kit inhibitors were used. After culture, the cells were counted using a Celltiter glo assay kit (Promega), and the 50% growth inhibition values (GI50, μM) of the control compounds and PHI-101 were measured.

[4] = system: c-kit D816V mutant Ba/F3 cell line; experiment: Cell cycle FACS assay; type: cell-based; settings: 1 μM, 24 hours
Protocol: The c-kit D816V mutant Ba/F3 cell line was treated with 1 μM of PHI-101, and then the SubG1/GO-1 population was analyzed by cell cycle FACS assay.
Specifically, the c-kit D816V mutant Ba/F3 cell line was adjusted to a concentration of 1×10^6 cells/ml and treated with each of PHI-101 and the control compound sunitinib at a concentration of 1 μM for 24 hours. Thereafter, the medium was removed, and the c-kit D816V mutant Ba/F3 cell line was fixed in 70% ethanol at 4° C. for 24 hours, and then incubated in a PBS buffer solution containing 40 μg/ml of propidium iodide (PI) and 100 μg/ml of RNase for 30 minutes to completely stain the total DNA. Cell cycle analysis of the stained cells was performed using a flow cytometer (FACS-C6, BD). The proportion of cells in G0/G1 phase, S phase and G2/M phase was measured, and based on the measurement results, the SubG1/GO-1 population was determined.

[5] = system: c-kit phosphorylation and downstream signaling (p-AKT, p-ERK1/2, p-S6) in GIST-T1 cell line; experiment: Inhibition of c-kit phosphorylation and downstream signaling in GIST-T1 cells (Western blot); type: cell-based, human; settings: 0.01, 0.1 and 1 μM
[6] = system: c-kit phosphorylation and downstream signaling (p-STAT3, p-ERK1/2) in c-kit D816V mutant Ba/F3 cell line; experiment: Inhibition of c-kit phosphorylation and downstream signaling in c-kit D816V Ba/F3 cells (Western blot); type: cell-based; settings: 0.1, 1 and 10 μM, 2 hours; controls sunitinib and dasatinib
Protocol: The inhibitory activities of the control compound and PHI-101 against c-kit phosphorylation and downstream signaling (p-STAT3, p-ERK1/2) in the c-kit D816V mutant Ba/F3 cell line were measured, and as control compounds, sunitinib and dasatinib were used.
(§1) Specifically, the c-kit D816V mutant Ba/F3 cell line was dispensed at a density of 1×10^6 cells/ml, treated with each of the control compounds and PHI-101 at concentrations of 0.1, 1 and 10 μM, and then cultured for 2 hours. Lysates of the cells were obtained using lysis buffer (50 mM Tris-HCl pH7.5, 1% NP40, 1 mM EDTA, 150 mM NaCl, 5 mM, Na3VO4 and 2.5 mM NaF, and a protease inhibitor cocktail). Equal amounts of the cell lysates were electrophoresed using 8% SDS-PAGE gel at 100 V for 1 hour and 30 minutes, and the separated protein was electrically transferred to nitrocellulose membranes. The membranes were blocked with 5% skim milk at room temperature for 30 minutes, and allowed to react with primary antibodies (diluted 1:5,000), including p-c-kit tyrosine 719 (Y719), p-STAT3 tyrosine 705 (Y705) and p-ERK1/2 threonine 202/tyrosine 204 (T202/Y204) at 4° C. for 16 to 20 hours. […] Next, the membranes were washed three times with TBST for 5 minutes each time and treated with a chemiluminescent substrate reagent, and the expression level of the protein was measured by detecting luminescence with an X-ray film in the dark.

[7] = system: c-kit D816V mutant Ba/F3 cell line; experiment: Apoptotic effect, Annexin V-PI FACS analysis; type: cell-based; settings: 24 hours
Protocol: Specifically, the c-kit D816V mutant Ba/F3 cell line was adjusted to a concentration of 1×10^6 cells/ml and treated with each of PHI-101 at concentrations of 0.1, 1 and 10 μM and the control compound sunitinib at concentrations of 1 and 10 μM for 24 hours. Thereafter, the medium was removed and the cells were washed once with 1 ml PBS. The PBS was removed by centrifugation at 1,000 rpm for 5 minutes. The cells were dissolved in 100 μl of PBS containing Ca^2+ and Mg^2+ and allowed to react with 5 μl of Annexin V for 20 minutes. After completion of the reaction, 400 μl of PBS containing Ca^2+ and Mg^2+ was added, and 5 μl of propidium iodide (PI) was added, and then the degree of apoptotic cell death was analyzed by FACS (fluorescence activated cell sorter) assay using a flow cytometer (FACS-C6, BD).

[8] = system: GIST-T1 cell line; experiment: Apoptotic effect, cleaved PARP Western blot in GIST-T1; type: cell-based, human; settings: 0.01, 0.1 and 1 μM, 24 hours
Protocol: as §1, with “membranes.” for “membranes. The membranes were blocked with 5% skim milk at room temperature for 30 minutes, and allowed to react with primary antibodies (diluted 1:5,000), including p-c-kit tyrosine 719 (Y719), p-STAT3 tyrosine 705 (Y705) and p-ERK1/2 threonine 202/tyrosine 204 (T202/Y204) at 4° C. for 16 to 20 hours.”
A gastrointestinal stromal tumor cell line was treated with PHI-101, and the level of cleaved PARP, an apoptosis marker, was analyzed. […]
Specifically, the apoptotic effect of PHI-101 against the GIST-T1 cell line was analyzed in the same manner as in Example 1-2, except that the GIST-T1 cell line was treated with each of the control compounds at a concentration of 1 μM and PHI-101 at concentrations of 0.01, 0.1 and 1 μM for 24 hours, and that cleaved PARP diluted at 1:3,000 was used as a primary antibody.

[9] = system: c-kit D816V Ba/F3 cell line xenograft mouse model; experiment: Survival time of c-kit D816V Ba/F3 cell line xenograft mouse model; type: in vivo; settings: oral, daily
Protocol: As mice, 6-8-week-old NOD SCID female mice (18 to 22 g) (GemPharmatech Co., Ltd.) were prepared. Mice were acclimatized for 7 days before use in the experiment, and mice with abnormal health were excluded from the experiment. Mice were bred in a cage (300×180×150 mm) at a 22±3° C. and a relative humidity of 40% to 70% with a 12-hr light/12-hr dark cycle. Mice were allowed access to sterilized dry granular food (Beijing Keaoxieli Feed Co., Ltd., Beijing, China) and water ad libitum for the entire experimental period except for the period specified in the protocol.
50 ml of c-kit D816V mutant Ba/F3 cells suspension cultured in a 75 T flask were placed in a conical tube and centrifuged at 800 rpm for 2 minutes, centrifuged with DPBS (Dulbecco's Phosphate-Buffered Saline, Welgene) at 800 rpm for 2 minutes, washed, and then suspended in RPMI1640 (Welgene) without antibiotics and fetal bovine serum (FBS). Thereafter, the cells were stained with trypan blue and counted with a hemocytometer. […]
Specifically, while the presence or absence of abnormalities in the mouse model of Example 3-1 was monitored daily by checking the skin condition, bleeding and stool status, whether the body weight changed was checked by measuring the mouse weight at intervals of 3 days after the start of oral administration of each drug. […]

SMILES	GI50 [1]	GI50 [2]	GI50 [3]	SubG1/GO-1 population [4]	c-kit phosphorylation and downstream signaling [5]	pIC50 ([1]; GIST-T1 proliferation, read-out: IC50 value in GIST-T1 cells)	inhibitory activity against p-c-kit (Y719) phosphorylation [6]	induction of apoptosis ([7]; 0.1 μM)	apoptosis, concentration dependence ([7]; 0.1, 1 and 10 μM)	level of cleaved PARP (apoptosis marker) [8]	prolongation of survival time compared to vehicle-administered group ([9]; 7 mg/kg)	survival time compared to vehicle-administered group ([9]; 80 mg/kg)	inhibitory activity against the c-kit D816V Ba/F3 mutant cell line compared with control compounds ([3]; controls imatinib and sunitinib)	selectivity for c-kit D816V Ba/F3 mutant cell line versus parental Ba/F3 cell line ([3]; from GI50 values of Table 1)
Cc1nc(Nc2ncc(C(=O)Nc3c(C)cccc3Cl)s2)cc(N2CCN(CCO)CC2)n1 [Dasatinib, dasatinib]	0.073 µM													
Cc1ccc(NC(=O)c2ccc(CN3CCN(C)CC3)cc2)cc1Nc1nccc(-c2cccnc2)n1 [Imatinib, imatinib]	0.064 µM	12.7 µM	11.5 µM											
NC(=O)Nc1cc(C#Cc2cccc(F)c2)sc1C(=O)N[C@H]1CCCNC1 [PHI-101, (S)-5-((3-fluorophenyl)ethynyl)-N-(piperidin-3-yl)-3-ureidothiophene-2-carboxamide]	0.036 µM	5.01 µM	0.912 µM	increased	decreased c-kit phosphorylation and downstream signaling in a concentration-dependent manner	7.44	higher inhibitory activity against p-c-kit (Y719) phosphorylation than the control compounds	strongly induced apoptosis	apoptosis increased in a concentration-dependent manner	increased in a manner dependent on the concentration of PHI-101	3 days	doubled	higher inhibitory activity against the c-kit D816V Ba/F3 mutant cell line than the control compounds	higher selectivity for the c-kit D816V Ba/F3 mutant cell line than for the parental Ba/F3 cell line
CCN(CC)CCNC(=O)c1c(C)[nH]c(/C=C2\C(=O)Nc3ccc(F)cc32)c1C [Sunitinib, sunitinib]	0.026 µM	13.3 µM	2.65 µM											

Source: patent US12582639B2, “Preventive, relief or therapeutic use of 2,3,5-substituted thiophene compound against gastrointestinal stromal tumor” (PHAROS IBIO CO., LTD, priority 2020, dated 2026)
